Measurements taken from patent publication US5679671A, “Amino acid derivative” (Eisai Co., Ltd., priority 1993, dated 1997).
pIC50: −log10 of the molar value.

Assays:
ACE [1] = target: T1, ACE (Rattus norvegicus, UniProt P47820); assay: ACE inhibition activity using rat lung (Experiment B-2); format: biochemical; conditions: rat lung membrane fraction, borate buffer
T1 construct: membrane fraction prepared from rat lung; from tissue; host or cells: rat lung, membrane fraction (method of Wu-Wong et al.)
T1 sequence (P47820 36-1313): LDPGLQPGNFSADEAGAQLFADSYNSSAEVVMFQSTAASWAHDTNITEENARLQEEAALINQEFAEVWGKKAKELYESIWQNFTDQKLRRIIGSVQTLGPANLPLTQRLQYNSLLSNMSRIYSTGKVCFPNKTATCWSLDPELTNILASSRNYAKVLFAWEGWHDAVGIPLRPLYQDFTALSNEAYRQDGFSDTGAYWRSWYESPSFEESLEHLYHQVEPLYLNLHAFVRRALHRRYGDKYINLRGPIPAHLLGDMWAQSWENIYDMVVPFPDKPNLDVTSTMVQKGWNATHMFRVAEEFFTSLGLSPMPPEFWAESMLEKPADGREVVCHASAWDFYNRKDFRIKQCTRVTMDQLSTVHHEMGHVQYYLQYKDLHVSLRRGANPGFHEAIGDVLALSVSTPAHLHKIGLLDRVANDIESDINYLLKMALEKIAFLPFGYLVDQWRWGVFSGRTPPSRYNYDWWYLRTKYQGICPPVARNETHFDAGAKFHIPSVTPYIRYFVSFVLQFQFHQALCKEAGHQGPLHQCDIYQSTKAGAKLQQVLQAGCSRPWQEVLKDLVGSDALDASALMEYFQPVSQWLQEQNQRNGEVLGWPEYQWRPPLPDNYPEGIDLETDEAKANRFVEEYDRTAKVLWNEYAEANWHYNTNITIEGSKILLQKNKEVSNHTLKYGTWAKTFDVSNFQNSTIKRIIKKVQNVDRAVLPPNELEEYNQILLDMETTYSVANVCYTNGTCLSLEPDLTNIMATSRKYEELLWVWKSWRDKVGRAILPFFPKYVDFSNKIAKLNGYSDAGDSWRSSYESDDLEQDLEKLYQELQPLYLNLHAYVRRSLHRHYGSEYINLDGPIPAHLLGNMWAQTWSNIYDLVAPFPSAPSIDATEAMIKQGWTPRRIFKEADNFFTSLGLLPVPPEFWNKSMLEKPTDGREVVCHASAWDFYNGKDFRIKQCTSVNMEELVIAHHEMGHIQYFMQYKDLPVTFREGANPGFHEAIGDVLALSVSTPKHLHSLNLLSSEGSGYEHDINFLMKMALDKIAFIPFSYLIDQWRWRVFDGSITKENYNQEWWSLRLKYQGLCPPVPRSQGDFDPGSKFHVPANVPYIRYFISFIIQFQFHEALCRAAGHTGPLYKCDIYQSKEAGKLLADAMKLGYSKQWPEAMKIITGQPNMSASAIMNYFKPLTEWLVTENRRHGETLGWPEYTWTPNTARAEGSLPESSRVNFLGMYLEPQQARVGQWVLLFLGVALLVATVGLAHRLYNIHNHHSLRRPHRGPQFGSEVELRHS
Experimental: The ACE inhibition activity was determined by using a membrane fraction prepared from rat lung in accordance with the method of Wu-Wong et al. (Characterization of Endthelin Converting Enzyme in Rat Lung., Junshyum R. Wu-Wong, Gerald, P. Budzik, Edward M. Devine and Terry J. Opgenorth, Biochem. Biophys. Res. Commun., 1990, 171, 1291-1296.).
The ACE activity was determined with the use of a modification (modified to a borate buffer, p11 8.3) of the method of Cushman and Cheung (Spectrophotometric Assay and Properties of the Angiotensin-Converting Enzyme of Rabbit Lung., Cushman, D. W. and Cheung H. S., 1971, 20, […].).
In the presence of ACE, the hippurate liberated from hippuryl-histidine-leucine (Hippuryl-His-Leu (PeptideInstitute Inc., Japan)) was extracted with ethyl acetate and then the absorbance was measured at a wavelength of 228 nm.
(§1) With respect to the ACE inhibition activity, the inhibitor was added to the reaction system as described above in such a manner as to give the final concentrations of 1, 3, 10, 30, 100, 300 and 1000 nM, an inhibition curve was prepared, and then the concentration at which 50% inhibition was achieved was taken as IC50.

NEP [2] = target: T2, NEP (Rattus norvegicus, UniProt P07861); assay: NEP inhibition activity using rat renal cortex (Experiment B-1); format: biochemical; design: membrane fraction prepared from rat renal cortex; from tissue; host or cells: rat renal cortex, membrane fraction (method of Booth and Kenny); conditions: rat renal cortex membrane fraction
T2 sequence (P07861 1-750): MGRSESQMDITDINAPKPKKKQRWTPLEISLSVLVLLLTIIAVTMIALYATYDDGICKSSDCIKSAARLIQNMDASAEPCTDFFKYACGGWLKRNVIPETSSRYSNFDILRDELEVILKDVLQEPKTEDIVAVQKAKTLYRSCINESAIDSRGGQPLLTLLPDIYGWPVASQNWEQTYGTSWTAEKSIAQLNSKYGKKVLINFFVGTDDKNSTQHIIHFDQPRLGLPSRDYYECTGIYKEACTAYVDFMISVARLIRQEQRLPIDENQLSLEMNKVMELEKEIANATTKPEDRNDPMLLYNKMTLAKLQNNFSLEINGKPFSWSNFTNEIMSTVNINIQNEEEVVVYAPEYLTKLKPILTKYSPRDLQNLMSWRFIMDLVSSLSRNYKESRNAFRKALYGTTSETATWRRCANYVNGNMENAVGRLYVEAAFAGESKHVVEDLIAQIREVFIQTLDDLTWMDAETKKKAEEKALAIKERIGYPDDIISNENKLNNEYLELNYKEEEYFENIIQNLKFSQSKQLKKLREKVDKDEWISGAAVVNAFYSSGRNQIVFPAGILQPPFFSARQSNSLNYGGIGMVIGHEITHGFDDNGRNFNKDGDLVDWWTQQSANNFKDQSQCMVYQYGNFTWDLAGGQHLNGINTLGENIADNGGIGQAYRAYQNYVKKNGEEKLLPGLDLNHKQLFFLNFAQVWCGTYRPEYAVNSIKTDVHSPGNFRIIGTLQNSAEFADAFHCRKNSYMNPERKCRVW
Experimental: The NEP activity was determined by using a membrane fraction prepared from rat renal cortex in accordance with the method of Booth and Kenay (A Rapid Metod for the Purificaton of Microvilli from Rabbit Kidney., Andrew G. Booth and A. John Kenny, Biochem j., 1974, 142, 575-581.).
The NEP activity was determined by the following manner in accordance with the method of Orlowsky and Wilk (Purification and Specificity of a Membrane-Bound Metalloendpeptldase from Bovine Pituitaries., Marian Orlowsky and Shrwin Wilk, Biochemistry, 1981, 20, 4942-4950.).
(§2) As a substrate, benzoyl-glycine-arginine-arginine-2-naphthylamide (benzoyl-Gly-Arg-Arg-2-naphthylamide (Nova Biochem, Switzerland)) was used. In the presence of an NEP enzyme preparation and excessive leucine aminopeptidase (sigma chemical Co., U.S.A.), the liberated naphthylamine was made to undergo color development with first garnet (Sigma chemical Co., U.S.A.), followed by the measurement of the absorbance at a wavelength of 540 nm.
as §1, with “NEP” for “ACE”

ACE [3] = target: T1, ACE; assay: ACE inhibition activity (Experiment E-1); format: biochemical; conditions: rat lung membrane fraction, pH 8.3
Experimental: As a source of the enzyme ACE, a membrane fraction prepared from rat lung in accordance with the method of Wu-Wong et al. (Characterization of Endthelin Converting Enzyme in Rat Lung., Jinshyum R. Wu-Wong, Gerald, P. Budzik, Edward M. Devine and Terry J. Opgenorth, Biochem. Biophys. Res. Commun., 1990, 171, 1291-1296.) was used. The ACE activity was determined with the use of a modification (modified to a borate buffer pH 8.3) of the method of Cushman and Cheung (Spectrophotometric Assay and Properties of the Angiotensin-Converting Enzyme of Rabbit Lung., Cushman D. W. and Cheung H. S., 1971, 20, 1637-1648.). Now the procedure will be briefly described.
In the presence of ACE, the hippurate liberated from hippuryl-histidyl-leucine (Hippuryl-His-Leu (PeptideInstitute Inc., Japan)) was extracted with ethyl acetate and then the absorbance was measured at a wavelength of 228 nm.
(§3) To determine the NEP inhibition activity and the ACE inhibition activity, the inhibitor was added to the assay systems of both enzyme activities as described above in such a manner as to give the final concentrations of 1, 3, 10, 30, 100, […] and 1000 nM and inhibition curves were prepared. Then the concentration at which 50% inhibition was achieved was taken as IC50.

in vivo = conditions: rat, in vivo; for bioavailability: po
Excerpt: Then changes in the blood level of each medicament were monitored with the lapse of time by using liquid chromatography.

NEP [4] = target: T2, NEP; assay: NEP inhibition activity (Experiment E-1); format: biochemical; design: membrane fraction prepared from rat renal cortex; from tissue; host or cells: rat renal cortex, membrane fraction (method of Booth and Kenny); conditions: rat renal cortex membrane fraction
Experimental: As a source of the enzyme NEP, a membrane fraction prepared from rat renal cortex in accordance with the method of Booth and Kenny (A Rapid Method for the Purification of Microvilli from Rabbit Kidney., Andrew G. Booth and A. John Kenny, Biochem. j., 1974, 142,575-581.) was employed. The NEP activity was determined in accordance with the method of Orlowsky and Wilk (Purification and Specificity of a Membrane-Bound Metalloendpeptidase from Bovine Pituitaries., Marian Orlowsky and Shrwin Wilk, Biochemistry, 1981, 20, 4942-4950.). Now the procedure will be briefly described.
as §2, with “benzoyl-glycyl-arginyl-arginyl-2-naphthylamide (benzoyl-Gly-Arg-Arg-2 naphthylamide” for “benzoyl-glycine-arginine-arginine-2-naphthylamide (benzoyl-Gly-Arg-Arg-2-naphthylamide”
as §3

pIC50 (ACE [1]) | pIC50 (NEP [2]) | pIC50 (ACE [3]) | bioavailability (in vivo; 10 mg/kg) [%] | bioavailability (in vivo; 30 mg/kg) [%] | pIC50 (NEP [4]) | SMILES | oral absorbability (in vivo)
7.22 | 7.26 |  |  |  |  | CCOC(=O)C1CCCC2c3sccc3CC(NC(=O)[C@H](Cc3ccccc3)SC(C)=O)C(=O)N12 (single isomer, unassigned) [Example B-7] | 
7.80 | 8.07 |  |  |  |  | O=C(N[C@H]1Cc2sccc2[C@H]2CCC[C@@H](C(=O)O)N2C1=O)[C@@H](S)Cc1ccccc1 [Example B-3, [5S-[5α,8α(R*),11αβ]]-5-[[(S)-2-Mercapto-1-oxo-3-phenylpropyl]amino]-6-oxo-4,5,6,8,9,10,11,11a-octahydropyrido[1,2-a]thieno[3,2c]azepine-8-carboxylic acid] | 
7.05 | 7.14 |  |  |  |  | O=C(O)C1CCCC2c3sccc3CC(NC(=O)[C@@H](S)Cc3ccccc3)C(=O)N12 (stereo partly drawn) [Example B-8, 5-[(S)-2-Mercapto-1-oxo-3-phenylpropyl]amino-6-oxo-4,5,6,8,9,10,11,11a-octahydro[1,2-a]thieno-[2,3-c]azepine-8-carboxylic acid] | 
 |  | 8.00 | 18.8 | 24.6 | 7.55 | O=C(N[C@H]1Cc2ccc(-c3ccccc3)cc2[C@H]2CCC[C@@H](C(=O)O)N2C1=O)[C@@H](S)Cc1ccccc1 [Example E-6, [4S-[4α,7α(R*),12bβ]]-7-[(S)-2-Mercapto-3-phenylpropionylamino]-6-oxo-11-phenyl-1,2,3,4,6,7,8,12b-octahydropyrido[2,1-a][2]benzazepine-4-carboxylic acid] | superior in oral absorbability to the comparative compound E-1
